Data reported in patent publication US12365928B2, “Scalable biosynthesis of the seaweed neurochemical kainic acid” (The Regents of the University of California, priority 2018, dated 2025).
Entries after “also recorded” stand apart in the source; their conditions may differ.

Legend:
[1] = molecular target: T1, DsKabA (Digenea simplex, UniProt A0A4D6IA24); experiment: DsKabA activity and substrate specificity assay (LCMS); assay type: biochemical; settings: 23° C., 5 h, LCMS (FIG. 8); for turnover to N-prenylated product when L-glutamate is exchanged for another amino acid: 5 mM amino acid, 1 mM DMAPP, 5 mM MgCl2, 20 μM DsKabA
T1 construct: DsKabA p28 For; His6 (N); made in house; host or cells: E. coli BL-21
T1 sequence (A0A4D6IA24 1-439): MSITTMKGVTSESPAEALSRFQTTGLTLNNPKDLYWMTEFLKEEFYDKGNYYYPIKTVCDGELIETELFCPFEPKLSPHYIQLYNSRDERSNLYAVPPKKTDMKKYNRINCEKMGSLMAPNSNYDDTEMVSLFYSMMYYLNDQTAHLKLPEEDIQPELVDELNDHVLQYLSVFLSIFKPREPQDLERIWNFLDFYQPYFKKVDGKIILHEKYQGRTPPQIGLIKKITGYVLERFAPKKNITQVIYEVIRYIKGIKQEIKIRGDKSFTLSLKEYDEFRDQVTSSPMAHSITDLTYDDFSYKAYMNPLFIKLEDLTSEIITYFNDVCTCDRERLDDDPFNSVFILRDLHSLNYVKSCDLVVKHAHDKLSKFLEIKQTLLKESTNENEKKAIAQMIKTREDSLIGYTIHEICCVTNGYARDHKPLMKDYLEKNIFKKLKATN
Protocol: To test DsKabA activity and substrate specificity, a 50 μL reaction containing 5 mM MgCl2, 5 mM amino acid (L-Glu, D-Glu, L-Gln, L-Asp, L-Asn, or Gly), 1 mM prenyl donor (DMAPP or GPP), and 20 μM DsKabA in a buffer of 300 mM KCl and 50 mM HEPES pH 8.0 was incubated at 23° C. for 5 h. One equivalent of 0.1% formic acid in H2O was added and filtered with a VWR PES 3 k 500 μL spin column. The flow through was analyzed by an Agilent Technologies 1200 Series system with a diode-array detector coupled to an Agilent Technologies 6530 accurate-mass Q-TOF LCMS using the following method on a Synergi Polar-RP 4μ 250×4.6 mm column at 0.75 mL/min: 0% B (4.5 min), 0 to 5% B (0.5 min), 5 to 26% B (9 min), 26 to 80% B (9 min), 80 to 100% B (1 min), 100% B (1.5 min), 100 to 0% B (2.5 min), 0% B (2 min), wherein A=0.1% aqueous formic acid, and B=0.1% formic acid in acetonitrile.

[2] = system: ionotropic glutamate receptor (iGluR); settings: literature statement; cited from earlier work
[3] = humans in vivo; literature statement; cited from earlier work

| Compound | turnover to N-prenylated product when L-glutamate is exchanged for another amino acid [1] | iGluR bioactivity [2] | other results |
| --- | --- | --- | --- |
| N[C@H](CCC(=O)O)C(=O)O [D-glutamate] | diminished turnover | – | – |
| CC(C)=CCC/C(C)=C/COP(=O)(O)OP(=O)(O)O [GPP] | – | – | product formed when DMAPP is replaced by another prenyl donor ([1]; 1 mM prenyl donor with 5 mM L-glutamate, 20 μM DsKabA): formation of N-geranyl-L-glutamic acid (L-NGG) |
| NC(=O)C[C@H](N)C(=O)O [L-asparagine] | did not produce appreciable amounts of N-prenylated product | – | – |
| N[C@@H](CC(=O)O)C(=O)O [L-aspartate] | did not produce appreciable amounts of N-prenylated product | – | – |
| NC(=O)CC[C@H](N)C(=O)O [L-glutamine] | did not produce appreciable amounts of N-prenylated product | – | – |
| O=C(O)C[C@@H]1[C@@H](C(=O)O)NC[C@@H]1c1ccc(C(=O)O)[nH]c1=O [acromelic acid] | – | iGluR agonistic bioactivity | – |
| C/C(=C/C=C/[C@@H](C)C(=O)O)[C@H]1CN[C@H](C(=O)O)[C@H]1CC(=O)O [domoic acid] | – | – | excitotoxic / neurological effects [3]: causes severe neurological problems |
| NCC(=O)O [glycine] | did not produce appreciable amounts of N-prenylated product | – | – |
| C=C(C)[C@H]1CN[C@H](C(=O)O)[C@H]1CC(=O)O [kainic acid] | – | ionotropic glutamate receptor (iGluR) agonist; also recorded: agonistic activity | excitotoxic / neurological effects [3]: does not appear to produce excitotoxic effects |
| kainic acid lactone | – | iGluR antagonist | – |
